The record followed here is patent US9328106B2, “Cyclic ether pyrazol-4-yl-heterocyclyl-carboxamide compounds and methods of use” (Genentech, Inc., priority 2012, dated 2016).

PIM1, sequence (P11309 whole entry): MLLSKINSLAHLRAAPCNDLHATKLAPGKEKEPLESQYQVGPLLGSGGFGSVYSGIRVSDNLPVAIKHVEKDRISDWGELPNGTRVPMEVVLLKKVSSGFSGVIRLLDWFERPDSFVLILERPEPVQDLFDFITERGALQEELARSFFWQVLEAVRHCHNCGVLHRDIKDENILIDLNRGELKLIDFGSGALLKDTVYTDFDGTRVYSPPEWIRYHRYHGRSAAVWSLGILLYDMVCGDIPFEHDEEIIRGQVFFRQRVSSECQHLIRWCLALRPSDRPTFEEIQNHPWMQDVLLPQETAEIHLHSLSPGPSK

The experiment concerns the target PIM1 (Homo sapiens (Human), UniProt P11309). The experiment in a line: biochemical. Format: biochemical. Particulars: 20 pM PIM1, 1 μM FAM-peptide, 10 μM ATP, 90 minutes at room temperature; read-out: PIM1 LC3K (KI).
A word on the Ki: it is a measure of affinity in units of concentration, obtained from inhibition or displacement. For the compound `Cn1ncc(NC(=O)c2ccc(F)c(-c3c(F)cccc3F)n2)c1[C@@H]1CC[C@@H](N)[C@H](F)CO1` [Example 397, N-[5-[(2S,5R,6S)-5-amino-6-fluoro-oxepan-2-yl]-1-methyl-pyrazol-4-yl]-6-(2,6-difluorophenyl)-5-fluoro-pyridine-2-carboxamide], the inhibition constant (Ki) is 0.016 nM.

With `Cn1ncc(NC(=O)c2nc(-c3c(F)cccc3F)sc2N)c1C1OCC(CO)CO1` (stereo not shown) [Example 164, 5-Amino-2-(2,6-difluorophenyl)-N-[5-[5-(hydroxymethyl)-1,3-dioxan-2-yl]-1-methyl-pyrazol-4-yl]thiazole-4-carboxamide], the inhibition constant (Ki) stood at 0.105 nM.

On to `Cn1ncc(NC(=O)c2nc(-c3cccc(C(F)(F)F)c3F)sc2N)c1[C@@H]1CC[C@@H](N)[C@H](F)CO1` [Example 156, 5-amino-N-(5-((2S,5R,6S)-5-amino-6-fluorooxepan-2-yl)-1-methyl-1H-pyrazol-4-yl)-2-(2-fluoro-3-(trifluoromethyl)phenyl)thiazole-4-carboxamide], for which the inhibitory constant (Ki) stood at 0.107 nM.

For `Cn1ncc(NC(=O)c2nc(-c3c(F)cccc3F)sc2N)c1C1C[C@@H](N)[C@H](F)CCO1` (stereo partly drawn) [Example 127, 5-amino-N-(5-((4R,5R)-4-amino-5-fluorooxepan-2-yl)-1-methyl-1H-pyrazol-4-yl)-2-(2,6-difluorophenyl)thiazole-4-carboxamide], the Ki stood at 0.112 nM.

Regarding `Cn1ncc(NC(=O)c2csc(-c3cc(Br)ccc3F)n2)c1[C@@H]1CC[C@@H](N)[C@H](F)CO1` [Example 299, N-(5-((2S,5R,6S)-5-amino-6-fluorooxepan-2-yl)-1-methyl-1H-pyrazol-4-yl)-2-(5-bromo-2-fluorophenyl)thiazole-4-carboxamide], the Ki came out at 0.023 nM.

For `CO[C@H]1C[C@H](c2c(NC(=O)c3nc(-c4c(F)cccc4F)sc3N)cnn2C)OCC[C@@H]1N` [Example 138, 5-amino-N-(5-((2R,4S,5S)-5-amino-4-methoxyoxepan-2-yl)-1-methyl-1H-pyrazol-4-yl)-2-(2,6-difluorophenyl)thiazole-4-carboxamide], the Ki is 1.87 nM.

With `Cn1ncc(NC(=O)c2nc(-c3c(F)cccc3F)sc2N)c1[C@H]1CC[C@H](N)[C@@H](F)CO1` [Example 176, 5-Amino-N-[5-[(2R,5S,6R)-5-amino-6-fluoro-oxepan-2-yl]-1-methyl-pyrazol-4-yl]-2-(2,6-difluorophenyl)thiazole-4-carboxamide], the Ki stood at 0.595 nM.

As to `Cn1ncc(NC(=O)c2csc(-c3c(F)cc4c(c3F)OCC4)n2)c1[C@@H]1CC[C@@H](N)[C@H](F)CO1` [Example 391, N-(5-((2S,5R,6S)-5-amino-6-fluorooxepan-2-yl)-1-methyl-1H-pyrazol-4-yl)-2-(5,7-difluoro-2,3-dihydrobenzofuran-6-yl)thiazole-4-carboxamide], the inhibitory constant (Ki) worked out at 0.024 nM.

On to `Cn1ncc(NC(=O)c2nc(-c3cnn(C)c3C(F)(F)F)sc2N)c1[C@@H]1CC[C@@H](N)[C@H](F)CO1` [Example 282, 5-amino-N-(5-((2S,5R,6S)-5-amino-6-fluorooxepan-2-yl)-1-methyl-1H-pyrazol-4-yl)-2-(1-methyl-5-(trifluoromethyl)-1H-pyrazol-4-yl)thiazole-4-carboxamide], for which the Ki was found to be 0.058 nM.

In the case of `Cn1ncc(NC(=O)c2csc(-c3c(F)cccc3F)n2)c1[C@@H]1CC[C@@H](N)[C@H](O)CO1` [Example 352, N-(5-((2S,5R,6S)-5-amino-6-hydroxyoxepan-2-yl)-1-methyl-1H-pyrazol-4-yl)-2-(2,6-difluorophenyl)thiazole-4-carboxamide], the Ki stood at 0.174 nM.

`Cn1ncc(NC(=O)c2nc(-c3c(F)cccc3F)sc2N)c1C1CC[C@@H](N)[C@@H](F)CO1` (stereo partly drawn) [Example 119, 5-amino-N-(5-((5R,6R)-5-amino-6-fluorooxepan-2-yl)-1-methyl-1H-pyrazol-4-yl)-2-(2,6-difluorophenyl)thiazole-4-carboxamide]: the inhibitory constant (Ki) amounted to 0.021 nM.

With `Cn1ncc(NC(=O)c2csc(-c3cccc(-c4cccc(Cl)c4F)c3F)n2)c1[C@@H]1CC[C@@H](N)[C@@H](F)CO1` [Example 249, N-(5-((2S,5R,6R)-5-amino-6-fluorooxepan-2-yl)-1-methyl-1H-pyrazol-4-yl)-2-(3′-chloro-2,2′-difluoro-[1,1′-biphenyl]-3-yl)thiazole-4-carboxamide], the inhibition constant (Ki) was 0.533 nM.

For the compound `Cn1ncc(NC(=O)c2nc(-c3c(F)cccc3C(F)(F)F)sc2N)c1[C@@H]1CC[C@@H](N)[C@@H](F)CO1` [Example 278, 5-amino-N-(5-((2S,5R,6R)-5-amino-6-fluorooxepan-2-yl)-1-methyl-1H-pyrazol-4-yl)-2-(2-fluoro-6-(trifluoromethyl)phenyl)thiazole-4-carboxamide], the inhibition constant (Ki) was found to be 0.061 nM.

Consider `Cn1ncc(NC(=O)c2nc(-c3ccc(C(F)(F)F)cc3F)sc2N)c1[C@@H]1CC[C@@H](N)[C@@H](F)CO1` [Example 259, 5-amino-N-(5-((2S,5R,6R)-5-amino-6-fluorooxepan-2-yl)-1-methyl-1H-pyrazol-4-yl)-2-(2-fluoro-4-(trifluoromethyl)phenyl)thiazole-4-carboxamide], for which the inhibition constant Ki is 0.01 nM.

For `Cn1ncc(NC(=O)c2ccc(F)c(-c3c(F)cc(C(CO)CO)cc3F)n2)c1[C@@H]1CC[C@@H](N)[C@H](F)CO1` [Example 214, N-(5-((2S,5R,6S)-5-amino-6-fluorooxepan-2-yl)-1-methyl-1H-pyrazol-4-yl)-6-(4-(1,3-dihydroxypropan-2-yl)-2,6-difluorophenyl)-5-fluoropicolinamide], the inhibition constant Ki worked out at 0.075 nM.

Turning to `Cn1ncc(NC(=O)c2csc(-c3c(F)ccc(F)c3F)n2)c1[C@@H]1CC[C@@H](N)[C@@H](F)CO1` [Example 230, N-(5-((2S,5R,6R)-5-amino-6-fluorooxepan-2-yl)-1-methyl-1H-pyrazol-4-yl)-2-(2,3,6-trifluorophenyl)thiazole-4-carboxamide], the Ki stood at 0.031 nM.

Regarding `Cn1ncc(NC(=O)c2nc(-c3ccccc3C(F)(F)F)sc2N)c1[C@@H]1CC[C@@H](N)[C@@H](F)CO1` [Example 270, 5-amino-N-(5-((2S,5R,6R)-5-amino-6-fluorooxepan-2-yl)-1-methyl-1H-pyrazol-4-yl)-2-(2-(trifluoromethyl)phenyl)thiazole-4-carboxamide], the Ki was 0.053 nM.

Consider `Cc1ccc(F)c(-c2nc(C(=O)Nc3cnn(C)c3[C@@H]3CC[C@@H](N)[C@@H](F)CO3)c(N)s2)c1` [Example 274, 5-amino-N-(5-((2S,5R,6R)-5-amino-6-fluorooxepan-2-yl)-1-methyl-1H-pyrazol-4-yl)-2-(2-fluoro-5-methylphenyl)thiazole-4-carboxamide], for which the inhibition constant Ki came out at 0.02 nM.

Consider `COC1(c2c(NC(=O)c3nc(-c4ncccc4F)sc3N)cnn2C)CCCCO1` (stereo not shown) [Example 105, 5-amino-2-(3-fluoro-2-pyridyl)-N-[5-(2-methoxytetrahydropyran-2-yl)-1-methyl-pyrazol-4-yl]thiazole-4-carboxamide], for which the Ki was found to be 0.118 nM.

In the case of `C[C@H](O)c1cc(F)c(-c2nc(C(=O)Nc3cnn(C)c3[C@@H]3CC[C@@H](N)[C@H](F)CO3)cs2)c(F)c1` [Example 305, N-(5-((2S,5R,6S)-5-amino-6-fluorooxepan-2-yl)-1-methyl-1H-pyrazol-4-yl)-2-(2,6-difluoro-4-((S)-1-hydroxyethyl)phenyl)thiazole-4-carboxamide], the inhibitory constant (Ki) came out at 0.008 nM.

As for `Cc1cccnc1-c1nc(C(=O)Nc2cnn(C)c2[C@@H]2CC[C@@H](N)[C@H](F)CO2)c(N)s1` [Example 398, 5-amino-N-[5-[(2S,5R,6S)-5-amino-6-fluoro-oxepan-2-yl]-1-methyl-pyrazol-4-yl]-2-(3-methyl-2-pyridyl)thiazole-4-carboxamide], the Ki came out at 0.004 nM.

Regarding `CC(C)n1cc(-c2nc(C(=O)Nc3cnn(C)c3[C@@H]3CC[C@@H](N)[C@@H](F)CO3)c(N)s2)cn1` [Example 256, 5-amino-N-(5-((2S,5R,6R)-5-amino-6-fluorooxepan-2-yl)-1-methyl-1H-pyrazol-4-yl)-2-(1-isopropyl-1H-pyrazol-4-yl)thiazole-4-carboxamide], the Ki stood at 0.093 nM.

For `Cc1c(-c2nc(C(=O)Nc3cnn(C)c3[C@@H]3CC[C@@H](N)[C@H](F)CO3)cs2)cnn1C` [Example 242, N-(5-((2S,5R,6S)-5-amino-6-fluorooxepan-2-yl)-1-methyl-1H-pyrazol-4-yl)-2-(1,5-dimethyl-1H-pyrazol-4-yl)thiazole-4-carboxamide], the Ki was determined as 0.218 nM.

Consider `Cn1ncc(NC(=O)c2csc(-c3c(F)cc(C4(O)COC4)cc3F)n2)c1[C@@H]1CC[C@@H](N)[C@H](F)CO1` [Example 224, N-(5-((2S,5R,6S)-5-amino-6-fluorooxepan-2-yl)-1-methyl-1H-pyrazol-4-yl)-2-(2,6-difluoro-4-(3-hydroxyoxetan-3-yl)phenyl)thiazole-4-carboxamide], for which the Ki is 0.035 nM.

In the case of `Cn1ncc(NC(=O)c2csc(-c3c(F)cccc3F)n2)c1[C@H]1CC[C@H](N)[C@@H](O)CO1` [Example 353, N-(5-((2R,5S,6R)-5-amino-6-hydroxyoxepan-2-yl)-1-methyl-1H-pyrazol-4-yl)-2-(2,6-difluorophenyl)thiazole-4-carboxamide], the inhibition constant (Ki) was found to be 0.111 nM.

Regarding `Cn1ncc(NC(=O)c2csc(-c3c(F)cc(C(C)(C)O)cc3F)n2)c1[C@@H]1CC[C@@H](N)[C@H](F)CO1` [Example 297, N-(5-((2S,5R,6S)-5-amino-6-fluorooxepan-2-yl)-1-methyl-1H-pyrazol-4-yl)-2-(2,6-difluoro-4-(2-hydroxypropan-2-yl)phenyl)thiazole-4-carboxamide], the inhibition constant Ki was determined as 0.021 nM.

In the case of `Cn1ncc(NC(=O)c2csc(-n3cccn3)n2)c1[C@@H]1CC[C@@H](N)[C@H](F)CO1` [Example 388, N-(5-((2S,5R,6S)-5-amino-6-fluorooxepan-2-yl)-1-methyl-1H-pyrazol-4-yl)-2-(1H-pyrazol-1-yl)thiazole-4-carboxamide], the inhibition constant (Ki) turned out to be 0.157 nM.

Take `CC(O)c1cc(F)c(-c2nc(C(=O)Nc3cnn(C)c3[C@@H]3CC[C@@H](N)[C@@H](F)CO3)ccc2F)c(F)c1` (stereo partly drawn) [Example 210, N-(5-((2S,5R,6R)-5-amino-6-fluorooxepan-2-yl)-1-methyl-1H-pyrazol-4-yl)-6-(2,6-difluoro-4-(1-hydroxyethyl)phenyl)-5-fluoropicolinamide]: the Ki turned out to be 0.053 nM.
